Holding throughout (experiment): relative viability (nuclei count vs DMSO), 5 days (fraction); higher = more cells survive
Compound in the experiment “Adavosertib + Vorinostat”: C=CCn1c(=O)c2cnc(Nc3ccc(N4CCN(C)CC4)cc3)nc2n1-c1cccc(C(C)(C)O)n1 [Adavosertib] + O=C(CCCCCCC(=O)Nc1ccccc1)NO [Vorinostat] (partner 1 µM)
The method in brief:
(§1)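 Each reported value is a median over duplicate plates. It expresses relative viability: treated-well nuclei count divided by vehicle-well nuclei count. Lung cancer cell lines in 1536-well plates were dosed by pin tool a day after seeding, alone with one drug or with a fixed anchor-drug dose plus five library-drug doses (not always all listed) in √10 steps, and nuclei were counted after 5 days.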

Compound in the experiment “Adavosertib + Decitabine”: C=CCn1c(=O)c2cnc(Nc3ccc(N4CCN(C)CC4)cc3)nc2n1-c1cccc(C(C)(C)O)n1 [Adavosertib] + Nc1ncn([C@H]2C[C@H](O)[C@@H](CO)O2)c(=O)n1 [Decitabine] (partner 2 µM)
The method in brief: as §1

Compound in the experiment “Adavosertib + Foretinib”: C=CCn1c(=O)c2cnc(Nc3ccc(N4CCN(C)CC4)cc3)nc2n1-c1cccc(C(C)(C)O)n1 [Adavosertib] + COc1cc2c(Oc3ccc(NC(=O)C4(C(=O)Nc5ccc(F)cc5)CC4)cc3F)ccnc2cc1OCCCN1CCOCC1 [Foretinib] (partner 0.25 µM)
Put shortly:
as §1

Compound in the experiment “Nelarabine + Navitoclax”: COc1nc(N)nc2c1ncn2[C@@H]1O[C@H](CO)[C@@H](O)[C@@H]1O [Nelarabine] + CC1(C)CCC(c2ccc(Cl)cc2)=C(CN2CCN(c3ccc(C(=O)NS(=O)(=O)c4ccc(N[C@H](CCN5CCOCC5)CSc5ccccc5)c(S(=O)(=O)C(F)(F)F)c4)cc3)CC2)C1 [Navitoclax] (partner 0.5 µM)
Put shortly:
as §1

Turning to SK-LU-1, the relative viability with Adavosertib + Vorinostat (first compound 0.01 µM) turned out to be 0.734; in the experiment with Adavosertib + Vorinostat (first compound 0.03162 µM) it was 0.831; with Adavosertib + Vorinostat (first compound 0.1 µM) it was 0.666; with Adavosertib + Vorinostat (first compound 0.3162 µM), 0.453; in the experiment with Adavosertib + Decitabine (first compound 0.01 µM), 0.616; with Adavosertib + Decitabine (first compound 0.03162 µM) it was 0.64. The relative viability with Adavosertib + Decitabine (first compound 0.1 µM) was 0.631; with Adavosertib + Decitabine (first compound 0.3162 µM) it was 0.461; with Adavosertib + Foretinib (first compound 0.01 µM), 0.773; with Adavosertib + Foretinib (first compound 0.03162 µM) it was 0.831; in the experiment with Adavosertib + Foretinib (first compound 0.1 µM), 0.563; with Adavosertib + Foretinib (first compound 0.3162 µM), 0.311. In addition, the relative viability with Nelarabine + Navitoclax (first compound 0.01 µM) is 0.773; with Nelarabine + Navitoclax (first compound 0.03162 µM) it was 0.485; with Nelarabine + Navitoclax (first compound 0.1 µM), 0.84; with Nelarabine + Navitoclax (first compound 0.3162 µM) it was 0.79; in the experiment with Nelarabine + Navitoclax (first compound 1 µM), 0.79.
For SK-MES-1, the relative viability in the experiment with Adavosertib + Vorinostat (first compound 0.01 µM) was found to be 1.09; in the experiment with Adavosertib + Vorinostat (first compound 0.03162 µM) it was 1.06; with Adavosertib + Vorinostat (first compound 0.1 µM) it was 0.778; with Adavosertib + Vorinostat (first compound 0.3162 µM), 0.348; in the experiment with Adavosertib + Decitabine (first compound 0.01 µM), 0.368; with Adavosertib + Decitabine (first compound 0.03162 µM), 0.385. The relative viability in the experiment with Adavosertib + Decitabine (first compound 0.1 µM) was 0.364; with Adavosertib + Decitabine (first compound 0.3162 µM), 0.227; with Adavosertib + Foretinib (first compound 0.01 µM), 1.02; with Adavosertib + Foretinib (first compound 0.03162 µM), 0.924; with Adavosertib + Foretinib (first compound 0.1 µM), 0.866; in the experiment with Adavosertib + Foretinib (first compound 0.3162 µM), 0.731. The relative viability was found to be 1.36 with Nelarabine + Navitoclax (first compound 0.01 µM); 1.55 with Nelarabine + Navitoclax (first compound 0.03162 µM); 1.13 with Nelarabine + Navitoclax (first compound 0.1 µM); 1.09 in the experiment with Nelarabine + Navitoclax (first compound 0.3162 µM); 1.29 in the experiment with Nelarabine + Navitoclax (first compound 1 µM).
With SW 1573, the relative viability in the experiment with Adavosertib + Vorinostat (first compound 0.01 µM) amounted to 0.807; in the experiment with Adavosertib + Vorinostat (first compound 0.03162 µM) it was 0.687; with Adavosertib + Vorinostat (first compound 0.1 µM), 0.904; with Adavosertib + Vorinostat (first compound 0.3162 µM), 0.758; with Adavosertib + Decitabine (first compound 0.01 µM), 0.503; with Adavosertib + Decitabine (first compound 0.03162 µM), 0.535. For the same cell line, the relative viability with Adavosertib + Decitabine (first compound 0.1 µM) came to 0.663; with Adavosertib + Decitabine (first compound 0.3162 µM), 0.291; with Adavosertib + Foretinib (first compound 0.01 µM), 0.953; with Adavosertib + Foretinib (first compound 0.03162 µM), 0.914; with Adavosertib + Foretinib (first compound 0.1 µM), 1.13; with Adavosertib + Foretinib (first compound 0.3162 µM), 1.2. The relative viability in the experiment with Nelarabine + Navitoclax (first compound 0.01 µM) is 1.14; in the experiment with Nelarabine + Navitoclax (first compound 0.03162 µM), 1.26; with Nelarabine + Navitoclax (first compound 0.1 µM), 1.02; in the experiment with Nelarabine + Navitoclax (first compound 0.3162 µM) it was 0.98; with Nelarabine + Navitoclax (first compound 1 µM), 1.03.
In the case of UMC-11, the relative viability in the experiment with Adavosertib + Vorinostat (first compound 0.01 µM) was determined as 0.438; with Adavosertib + Vorinostat (first compound 0.03162 µM), 0.405; in the experiment with Adavosertib + Vorinostat (first compound 0.1 µM), 0.346; with Adavosertib + Vorinostat (first compound 0.3162 µM), 0.308; in the experiment with Adavosertib + Decitabine (first compound 0.01 µM) it was 0.646; with Adavosertib + Decitabine (first compound 0.03162 µM), 0.606. For the same cell line, the relative viability with Adavosertib + Decitabine (first compound 0.1 µM) is 0.608; in the experiment with Adavosertib + Decitabine (first compound 0.3162 µM), 0.654; with Adavosertib + Foretinib (first compound 0.01 µM), 0.981; with Adavosertib + Foretinib (first compound 0.03162 µM), 1.06; with Adavosertib + Foretinib (first compound 0.1 µM) it was 1.06; with Adavosertib + Foretinib (first compound 0.3162 µM) it was 1.08. Also, the relative viability in the experiment with Nelarabine + Navitoclax (first compound 0.01 µM) was found to be 0.291; with Nelarabine + Navitoclax (first compound 0.03162 µM), 0.277; with Nelarabine + Navitoclax (first compound 0.1 µM) it was 0.307; with Nelarabine + Navitoclax (first compound 0.3162 µM), 0.306; with Nelarabine + Navitoclax (first compound 1 µM) it was 0.313.

For the origin of these results see the supplement of paper PMC10307832.
